The target of assay [1] is T1, Cannabinoid receptor 1 (Homo sapiens, UniProt P21554). The experiment in a line: Displacement of [3H]- CP55940 from human CB1R expressed in HEK293F cells assessed as inhibition constant incubated for 1 hr by scintillation counter analysis. It is filed as cell-based. As to conditions: filed as antagonist. For orientation: In a radioligand displacement assay an active substance lowers the binding of a labelled ligand.

Assay [2] has as its target Cannabinoid receptor 1 (Rattus norvegicus, UniProt P20272). The experiment in a line: Antagonist activity at rat CB1R expressed in CHO cells assessed as inhibition of forskolin stimulated cyclic AMP production. Format: cell-based.
The target of assay [3] is T1, Cannabinoid receptor 1. Kind of assay: Antagonist activity at human CB1R assessed as beta arrestin-2 recruitment by measuring inhibition constant. On the technique in general: Activated receptors often draw arrestin, which recruitment assays turn into a signal.
The target in assay [4] is T2, Cannabinoid receptor 2 (Homo sapiens, UniProt P34972). Kind of assay: Antagonist activity at human CB2R assessed as beta arrestin-2 recruitment by measuring inhibition constant.
T2 sequence (P34972 whole entry): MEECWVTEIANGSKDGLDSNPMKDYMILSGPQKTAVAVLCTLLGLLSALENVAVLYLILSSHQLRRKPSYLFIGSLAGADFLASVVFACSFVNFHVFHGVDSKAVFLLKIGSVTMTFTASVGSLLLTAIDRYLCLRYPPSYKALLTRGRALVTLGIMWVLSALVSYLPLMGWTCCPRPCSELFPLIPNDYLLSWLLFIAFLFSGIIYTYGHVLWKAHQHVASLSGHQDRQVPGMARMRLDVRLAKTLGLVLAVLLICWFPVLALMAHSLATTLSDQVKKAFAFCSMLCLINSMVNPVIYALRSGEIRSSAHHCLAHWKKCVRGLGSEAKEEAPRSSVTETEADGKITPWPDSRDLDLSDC
In assay [5] the target is T2, Cannabinoid receptor 2. The experiment in a line: Binding affinity to wild type human CB2R expressed in HEK293 cells assessed as inhibition constant. It is filed as cell-based.
Assay [6] concerns the target T1, Cannabinoid receptor 1. Kind of assay: Binding affinity to CB1R (unknown origin) assessed as inhibition constant. As to conditions: filed as antagonist.

Structures are written as SMILES.

T1 sequence (P21554 whole entry): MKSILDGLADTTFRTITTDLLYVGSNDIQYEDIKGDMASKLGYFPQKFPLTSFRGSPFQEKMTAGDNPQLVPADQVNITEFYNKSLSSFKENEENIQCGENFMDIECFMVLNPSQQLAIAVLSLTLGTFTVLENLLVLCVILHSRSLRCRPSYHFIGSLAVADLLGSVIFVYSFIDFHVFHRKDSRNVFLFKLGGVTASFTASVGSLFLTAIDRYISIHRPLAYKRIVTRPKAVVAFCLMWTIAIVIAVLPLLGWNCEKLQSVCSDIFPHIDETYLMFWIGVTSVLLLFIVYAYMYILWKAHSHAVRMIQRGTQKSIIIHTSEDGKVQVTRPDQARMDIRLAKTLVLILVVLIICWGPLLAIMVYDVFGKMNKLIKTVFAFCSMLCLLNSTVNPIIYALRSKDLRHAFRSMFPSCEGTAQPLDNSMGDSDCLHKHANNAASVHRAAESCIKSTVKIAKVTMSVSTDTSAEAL
Sequence of Cannabinoid receptor 1 (Rattus norvegicus, UniProt P20272) (P20272 whole entry): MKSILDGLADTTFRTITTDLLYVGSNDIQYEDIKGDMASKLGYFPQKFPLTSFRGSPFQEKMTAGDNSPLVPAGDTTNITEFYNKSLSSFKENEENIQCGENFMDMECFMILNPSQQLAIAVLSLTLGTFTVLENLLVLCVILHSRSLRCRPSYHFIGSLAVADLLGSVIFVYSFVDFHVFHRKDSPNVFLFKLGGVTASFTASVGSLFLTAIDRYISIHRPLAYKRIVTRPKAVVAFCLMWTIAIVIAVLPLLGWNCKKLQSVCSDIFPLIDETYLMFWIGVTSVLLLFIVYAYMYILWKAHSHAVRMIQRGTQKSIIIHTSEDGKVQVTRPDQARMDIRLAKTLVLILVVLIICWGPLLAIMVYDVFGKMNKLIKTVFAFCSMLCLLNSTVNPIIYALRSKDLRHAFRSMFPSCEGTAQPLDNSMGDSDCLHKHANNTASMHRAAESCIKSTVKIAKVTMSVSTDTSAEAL

Consider `Cc1c(C(=O)NN2CCCCC2)nn(-c2ccc(Cl)cc2Cl)c1-c1ccc(C#CCCO[N+](=O)[O-])cc1`, for which the K in assay [1] came out at 5.1 nM.

As for `CCCCCCC(C)(C)c1cc(OC)c([C@H]2C=C(CO)[C@H]3C[C@@H]2C3(C)C)c(OC)c1`, in assay [2], the Ki (commonly a dissociation constant, usually derived from enzyme kinetics or from competition with a known ligand) was more than 10000 nM.

Take `Cc1c(C(=O)NC23CC4CC(CC(C4)C2)C3)nn(CCCCCO)c1-c1ccccc1`: the inhibitory constant (Ki) came out at 13 nM in assay [3] and 0.075 nM in assay [4].

Take `CCCCCn1nc(C(=O)NC23CC4CC(CC(C4)C2)C3)c(C)c1-c1ccccc1`: the Ki in assay [5] amounted to 0.63 nM.

As to `Cc1c(C(=O)NC23CC4CC(CC(C4)C2)C3)nn(CCCCSC#N)c1-c1ccccc1`, the K in assay [6] worked out at 5.76 nM.

For the origin of these results see ChEMBL document CHEMBL5223099, “Covalent cannabinoid receptor ligands - structural insight and selectivity challenges” (RSC Med Chem, 2022).
